Assay results from patent US20120053235A1, “Dihydromyricetin as an IKK-beta inhibitor used for treatment of arthritis, cancer and autoimmune conditions, and other diseases or disorders” (HONG KONG BAPTIST UNIVERSITY, priority 2010, published 2012).

Experiments:
[1] = system: ear edema induced by dinitrofluorobenzene in male ICR mice; experiment: Delay-type hypersensitivity test (DNFB-induced ear edema); assay type: in vivo; conditions: DTHT mice, topical treatment
Procedure: Male mice were sensitized through topical application of 20 μl of 0.5% (v/v) dinitrofluorobenzene (DNFB) in acetone onto the shaved abdomen on days 1 and 2. Challenge was then preformed in day 6 by applying DNFB (20 μl, 0.5%, v/v) on the left inner and outer ear surfaces of mice. DMY (at doses of 0.5, 1, 2 mg/ear) and DEX (0.025 mg/ear, Sigma-Aldrich) dissolved in acetone was topically applied (20 μl) to the ears at 2nd, 24th, 48th, and 72nd hour after the challenge. The mice were sacrificed by cervical dislocation, and then the same area of the ears was punched from each animal. Spleens and thymuses were isolated and weighted. The ear edema was calculated according to the differences between the weight of the right and left ears. The control group was treated only with DNFB.

[2] = system: collagen II induced arthritis in female Wistar rats; experiment: Collagen II induced arthritis (CIA); assay type: in vivo
Procedure: Collagen II solution (collagen, 2 mg/ml in 0.05M acetic acid, Chondrex 20022, Redmond, Wash., USA) was emulsified with an equal volume of incomplete Freund's adjuvant (IFA, Chondrex 7002, Redmond, Wash., USA) at 4° C. using a high-speed homogenizer. In the experiment of CIA, DMY was encapsulated with HP-CD (1:8.48) and then dissolved in the normal saline with drug concentrations of 50 and 100 mg/kg body weight. Rats were intradermally injected at the base of the tail with 100 μl collagen/incomplete Freund's adjuvant (IFA) emulsion containing […] of collagen II by the use of a glass syringe equipped with a locking hub and a 27-G needle. On day 7 after the primary immunization, all the rats were given a booster injection of 100 μg of collagen II in IFA. On the day after the onset of arthritis (day 13), the CIA rats were exposed to a daily intraperitoneal administration of DMY (50 and 100 mg/kg) until day 30 of the study. DEX (0.1 mg/kg, one per day), MTX (3.75 mg/kg, twice per week), and indomethacin (1 mg/kg, one per day) were used as positive reference drugs. The rats were inspected daily from the onset of arthritis characterized by edema and/or erythema in the paws. The incidence and severity of arthritis were evaluated using an arthritic scoring system, and bi-hind paw volumes and body weight were measured every 2 days started on the day when the arthritic signs were firstly visible (day 13). In the arthritic scoring system, lesions (i.e., the clinical arthritic signs) of the four paws of each rat were graded from 0 to 4 according to the extent of both edema and erythema of the periarticular tissues. As such, 16 was the potential maximum of the combined arthritic scores per animal. The hind paw volumes were measured using a plethysmometer chamber (7140 UGO. Basile, Comerio, Italy) and expressed as the mean volume change of both hind paws of the rats. Body weight of the rats was monitored with a 0.1 g precision balance (Sartorius AG, Goettingen, Germany). On day 30, all rats were sacrificed with liver, spleen and thymus being collected and weighted. The organ index for a specific organ is equal to the ratio of the weight of that organ to a body weight of 100 g.

| spleen weight ([1]; FIGS. 9B and C) | thymus weight ([1]; FIGS. 9B and C) | organ indexes of spleen and/or thymus ([2]; rat, in vivo) | organ indexes of spleen and/or thymus ([2]; CIA rats, day 30, FIG. 10C) | Structure (SMILES) | body weight [1] | body weight ([2]; CIA rats, FIG. 100D) |
| --- | --- | --- | --- | --- | --- | --- |
| decreased | decreased | significant reduction | – | C[C@@H]1C[C@H]2[C@@H]3CCC4=CC(=O)C=C[C@]4(C)[C@@]3(F)[C@@H](O)C[C@]2(C)[C@@]1(O)C(=O)CO [DEX, reference compound] | greatly reduced | – |
| – | – | significant reduction | – | CN(Cc1cnc2nc(N)nc(N)c2n1)c1ccc(C(=O)N[C@@H](CCC(=O)O)C(=O)O)cc1 [MTX, reference compound] | – | – |
| – | – | – | significant reduction | COc1ccc2c(c1)c(CC(=O)O)c(C)n2C(=O)c1ccc(Cl)cc1 [indomethacin, reference compound] | – | significant reduction in body weight |
